The values that follow come from ChEMBL document CHEMBL6127049, “Discovery of the selective and nanomolar inhibitor of DPP-4 more potent than sitagliptin by structure-guided rational design” (Eur J Med Chem, 2024).

Calls of active or inactive are those of the source. The calls are words filed in the database; no cut-off is given here.

In one assay the target is Dipeptidyl peptidase 4 (Homo sapiens, UniProt P27487). In words: Inhibition of DPP4 (unknown origin) assessed as hydrolysis rate using Gly-pro-p-nitroanilide as substrate measured after 20 mins incubation by fluorometric assay.
Assay [1] deals with Rattus norvegicus. In words: Anti-diabetic activity in normal Wistar rat model assessed as blood glucose level at 20 mg/kg, po followed by treated administered 3 mg/kg orally measured after 120 mins by Oral glucose tolerance test (reference value: 126.5 + /- 3.90 mg/dL). It is filed as functional. Conditions: 2 h.
Assay [2] has as its system Rattus norvegicus. In words: Anti-diabetic activity in normal Wistar rat model assessed as blood glucose level at 10 mg/kg, po followed by treated administered 3 mg/kg orally measured after 120 mins by Oral glucose tolerance test (reference value: 126.5 + /- 3.90 mg/dL). It is filed as functional. Conditions: 2 h.
The subject of assay [3] is Rattus norvegicus. The assay can be described thus: Reduction of serum glutamate pyruvate transaminase (SGPT) level in STZ-induced type 2 diabetes male Wistar albino rat model at 10 mg/kg, po measured after 4 weeks by hepatic function test. It is filed as functional, organism-based.
Assay [4] relates to Rattus norvegicus. The assay can be described thus: Antihyperlipidemic effect in STZ-induced type 2 diabetes male Wistar albino rat model assessed as LDL level at 10 mg/kg, po measured after 4 weeks (reference value: 184.65 +/- 4.57 mg/dL). It is filed as functional.
Assay [5] relates to Rattus norvegicus. In words: Anti-diabetic activity in normal Wistar rat model assessed as blood glucose level at 20 mg/kg, po followed by treated administered 3 mg/kg orally measured after 30 mins by Oral glucose tolerance test (reference value: 176.14 + /- 4.04 mg/dL). It is filed as functional. The settings on record: 0.5 h.
Assay [6] deals with Rattus norvegicus. The assay can be described thus: Anti-diabetic activity in normal Wistar rat model assessed as blood glucose level at 10 mg/kg, po followed by treated administered 3 mg/kg orally measured after 90 mins by Oral glucose tolerance test (reference value: 134.11 + /- 4.64 mg/dL). It is filed as functional. Conditions: 1.5 h.
The test system of assay [7] is Rattus norvegicus. In words: Antihyperlipidemic effect in STZ-induced type 2 diabetes male Wistar albino rat model assessed as total cholesterol level at 10 mg/kg, po measured after 4 weeks (reference value: 227.04 +/- 4.10 mg/dL). It is filed as functional.
Assay [8] relates to Rattus norvegicus. In words: Antihyperlipidemic effect in STZ-induced type 2 diabetes male Wistar albino rat model assessed as HDL level at 10 mg/kg, po measured after 4 weeks (reference value: 25.54 +/- 2.62 mg/dL). It is filed as functional.
The test system of assay [9] is Rattus norvegicus. The assay can be described thus: Anti-diabetic activity in normal Wistar rat model assessed as blood glucose level at 20 mg/kg, po followed by treated administered 3 mg/kg orally measured immediately after administration by Oral glucose tolerance test (reference value: 105.12 mg/dL). It is filed as functional.
Assay [10] relates to Rattus norvegicus. The assay can be described thus: Anti-diabetic activity in normal Wistar rat model assessed as blood glucose level at 20 mg/kg, po followed by treated administered 3 mg/kg orally measured after 90 mins by Oral glucose tolerance test (reference value: 134.11 + /- 4.64 mg/dL). It is filed as functional. The settings on record: 1.5 h.
The subject of assay [11] is Rattus norvegicus. The assay can be described thus: Anti-diabetic activity in normal Wistar rat model assessed as blood glucose level at 10 mg/kg, po followed by treated administered 3 mg/kg orally measured after 60 mins by Oral glucose tolerance test (reference value: 153.74 + /- 3.94 mg/dL). Conditions: 1 h. It is filed as functional.
Assay [12] relates to Rattus norvegicus. The assay can be described thus: Anti-diabetic activity in normal Wistar rat model assessed as blood glucose level at 20 mg/kg, po followed by treated administered 3 mg/kg orally measured after 60 mins by Oral glucose tolerance test (reference value: 153.74 + /- 3.94 mg/dL). Conditions: 1 h. It is filed as functional.
In assay [13] the test system is Rattus norvegicus. The assay can be described thus: Reduction of serum glutamate pyruvate transaminase (SGPT) level in STZ-induced type 2 diabetes male Wistar albino rat model at 20 mg/kg, po measured after 4 weeks by hepatic function test. It is filed as functional, organism-based.
Assay [14] deals with Rattus norvegicus. In words: Antihyperlipidemic effect in STZ-induced type 2 diabetes male Wistar albino rat model assessed as LDL level at 20 mg/kg, po measured after 4 weeks (reference value: 184.65 +/- 4.57 mg/dL). It is filed as functional.
Assay [15] concerns Rattus norvegicus. In words: Antihyperlipidemic effect in STZ-induced type 2 diabetes male Wistar albino rat model assessed as triglyceride level at 10 mg/kg, po measured after 4 weeks (reference value: 190.23 +/- 4.37 mg/dL). It is filed as functional.
The test system of assay [16] is Rattus norvegicus. In words: Antihyperlipidemic effect in STZ-induced type 2 diabetes male Wistar albino rat model assessed as HDL level at 20 mg/kg, po measured after 4 weeks (reference value: 25.54 +/- 2.62 mg/dL). It is filed as functional.
Assay [17] concerns Rattus norvegicus. The assay can be described thus: Reduction of alkaline phosphatase (ALP) level in STZ-induced type 2 diabetes male Wistar albino rat model at 20 mg/kg, po measured after 4 weeks by hepatic function test. It is filed as functional, organism-based.
Assay [18] relates to Rattus norvegicus. The assay can be described thus: Anti-diabetic activity in normal Wistar rat model assessed as blood glucose level at 10 mg/kg, po followed by treated administered 3 mg/kg orally measured after 30 mins by Oral glucose tolerance test (reference value: […] 176.14 + /- 4.04 mg/dL). Conditions: 0.5 h. It is filed as functional.
The subject of assay [19] is Rattus norvegicus. In words: Antihyperlipidemic effect in STZ-induced type 2 diabetes male Wistar albino rat model assessed as total cholesterol level at 20 mg/kg, po measured after 4 weeks (reference value: 227.04 +/- 4.10 mg/dL). It is filed as functional.
The subject of assay [20] is Rattus norvegicus. The assay can be described thus: Antihyperlipidemic effect in STZ-induced type 2 diabetes male Wistar albino rat model assessed as triglyceride level at 20 mg/kg, po measured after 4 weeks (reference value: 190.23 +/- 4.37 mg/dL). It is filed as functional.
Assay [21] relates to Rattus norvegicus. In words: Reduction of serum glutamate oxaloacetate transaminase (SGOT) level in STZ-induced type 2 diabetes male Wistar albino rat model at 10 mg/kg, po measured after 4 weeks by hepatic function test. It is filed as functional, organism-based.
In assay [22] the test system is Rattus norvegicus. The assay can be described thus: Reduction of serum glutamate oxaloacetate transaminase (SGOT) level in STZ-induced type 2 diabetes male Wistar albino rat model at 20 mg/kg, po measured after 4 weeks by hepatic function test. It is filed as functional, organism-based.
Assay [23] deals with Rattus norvegicus. In words: Reduction of alkaline phosphatase (ALP) level in STZ-induced type 2 diabetes male Wistar albino rat model at 10 mg/kg, po measured after 4 weeks by hepatic function test. It is filed as functional, organism-based.
The test system of assay [24] is Rattus norvegicus. In words: Anti-diabetic activity in normal Wistar rat model assessed as blood glucose level at 10 mg/kg, po followed by treated administered 3 mg/kg orally measured immediately after administration by Oral glucose tolerance test (reference value: 105.12 mg/dL). It is filed as functional.

Dipeptidyl peptidase 4, sequence (P27487 whole entry): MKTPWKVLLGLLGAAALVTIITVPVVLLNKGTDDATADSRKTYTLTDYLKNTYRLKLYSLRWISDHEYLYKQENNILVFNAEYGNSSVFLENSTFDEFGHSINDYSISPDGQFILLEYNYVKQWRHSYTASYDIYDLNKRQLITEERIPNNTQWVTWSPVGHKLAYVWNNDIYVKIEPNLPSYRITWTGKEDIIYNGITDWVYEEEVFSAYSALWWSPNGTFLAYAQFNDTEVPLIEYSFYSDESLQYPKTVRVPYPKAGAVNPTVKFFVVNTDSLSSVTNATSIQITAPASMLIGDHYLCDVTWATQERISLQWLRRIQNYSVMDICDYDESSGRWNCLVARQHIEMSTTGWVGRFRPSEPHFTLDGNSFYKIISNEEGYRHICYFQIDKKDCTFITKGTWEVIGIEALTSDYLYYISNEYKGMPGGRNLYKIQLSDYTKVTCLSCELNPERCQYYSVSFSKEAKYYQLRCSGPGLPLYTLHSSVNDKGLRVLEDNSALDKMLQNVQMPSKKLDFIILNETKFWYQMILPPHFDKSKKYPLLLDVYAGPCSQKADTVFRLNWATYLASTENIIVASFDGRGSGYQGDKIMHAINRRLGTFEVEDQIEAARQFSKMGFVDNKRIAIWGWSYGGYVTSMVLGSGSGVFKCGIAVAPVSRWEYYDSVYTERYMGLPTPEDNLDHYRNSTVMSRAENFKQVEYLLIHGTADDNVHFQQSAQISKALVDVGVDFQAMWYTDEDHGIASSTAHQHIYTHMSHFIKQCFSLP

By IC50 is commonly meant the concentration at which inhibition is half-maximal. `Cc1nc(N2CCCC2C#N)nc(C)c1CC(=O)O` (centres undefined): the IC50 on Dipeptidyl peptidase 4 stood at 1.23 µM.

As to `CC1=C(CC(=O)N2CCn3c(nnc3C(F)(F)F)C2)C(c2ccc(F)c(F)c2)NC(=O)N1` (centres undefined), on Dipeptidyl peptidase 4, the IC50 amounted to 1.06 µM.

Consider `CC1=C(C(=O)O)C(c2ccc(F)c(F)c2)N=C(N)N1C(=O)CN1CCCC(N)C1` (centres undefined), for which the Activity was found to be 110.72 mg/dL with Rattus norvegicus [1]; 106.76 mg/dL with Rattus norvegicus [2]; 123.32 mg/dL in the assay with Rattus norvegicus [4]; 115.15 mg/dL in the assay on Rattus norvegicus [5]; 107.57 mg/dL in the assay with Rattus norvegicus [6]; 148.09 mg/dL with Rattus norvegicus [7]. The Activity amounted to 48.23 mg/dL with Rattus norvegicus [8]; 101.44 mg/dL with Rattus norvegicus [9]; 114.84 mg/dL in the assay on Rattus norvegicus [10]; 108.35 mg/dL with Rattus norvegicus [11]; 118.96 mg/dL with Rattus norvegicus [12]; 107.12 mg/dL with Rattus norvegicus [14]. The Activity in the assay on Rattus norvegicus [15] amounted to 143.78 mg/dL; in the assay on Rattus norvegicus [16], 56.98 mg/dL; with Rattus norvegicus [18] it was 118.62 mg/dL; in the assay with Rattus norvegicus [19], 134.45 mg/dL; in the assay on Rattus norvegicus [20] it was 114.65 mg/dL; in the assay with Rattus norvegicus [24] it was 103.07 mg/dL. Moreover, the result in the assay with Rattus norvegicus [3], in the assay with Rattus norvegicus [13], with Rattus norvegicus [17], with Rattus norvegicus [21], in the assay with Rattus norvegicus [22] and in the assay on Rattus norvegicus [23] was Active. Besides, the IC50 at Dipeptidyl peptidase 4 came out at 0.09 µM.

Consider `CC1=C(CC(=O)N2CCCC(N)C2)C(C)NC(=O)N1` (centres undefined), for which the half-maximal inhibitory concentration (IC50) on Dipeptidyl peptidase 4 worked out at 1.19 µM.

For the compound `CC1=C(C(=O)O)C(c2ccc(F)c(F)c2)N=C(N)N1C(=O)CN1CCC[C@H]1C(=O)O` (some centres undefined), the IC50 at Dipeptidyl peptidase 4 was determined as 1.06 µM.

Turning to `CC1=C(CC(=O)N2Cc3cn(S(C)(=O)=O)nc3C2)C(C)NC(=O)N1` (centres undefined), on Dipeptidyl peptidase 4, the IC50 came to 0.942 µM.

On to `CC1=C(CC(=O)N2CCn3c(nnc3C(F)(F)F)C2)C(C)NC(=O)N1` (centres undefined), for which the IC50 at Dipeptidyl peptidase 4 was determined as 2.55 µM.

With `CC1=C(C(=O)O)C(c2ccc(F)c(F)c2)N=C(N)N1C(=O)CN1CCCC1C#N` (centres undefined), the IC50 on Dipeptidyl peptidase 4 amounted to 0.39 µM.

Take `Cc1nc(N2Cc3cn(S(C)(=O)=O)nc3C2)nc(C)c1CC(=O)O`: the IC50 on Dipeptidyl peptidase 4 worked out at 0.769 µM.

Take `Cc1nc(N2CCCC(N)C2)nc(C)c1CC(=O)O` (centres undefined): on Dipeptidyl peptidase 4, the 50% inhibitory concentration (IC50) was 1.4 µM.
